In patent US12442035B2, “Compositions and methods for detecting antibiotic responsive mRNA expression signatures and uses thereof” (THE BROAD INSTITUTE, INC., priority 2018, dated 2025):
≈ marks a conversion by molar mass, not a printed value. Entries after “also recorded” stand apart in the source; their conditions may differ. Read-outs that look alike come from different tables or passages of the source.

Tests used:
[1] = test system: S. aureus clinical isolates; assay: Standard broth microdilution MIC; assay type: cell-based; details: Staphylococcus aureus, read-out: levo MIC
Source text: (§3) All strains in this study (Table 7) were obtained from clinical or reference microbiological laboratories, including both local hospitals and MDRO strain collections from the Centers for Disease Control's Antibiotic Resistance Isolate Bank (see e.g., World Wide Web at (www).cdc.gov/ARIsolateBank/) and the New York State Department of Health.

[2] = test system: E. coli clinical isolates; assay: Standard broth microdilution MIC; assay type: cell-based, Escherichia coli; details: for MIC: Escherichia coli
Source text: as §3

[3] = test system: K. pneumoniae clinical isolates; assay: RNA-Seq transcriptional response to antibiotic exposure, GO term enrichment; assay type: cell-based, Klebsiella pneumoniae; details: CLSI breakpoint concentration, 0, 10, 30, 60 minutes
Source text: (§1) Fisher's combined probability test was used to select only those genes whose expression after antibiotic treatment was statistically distinguishable from its expression at any timepoint in the untreated samples. Gene ontology (GO) terms were assigned using blast2GO (version 1.4.4), with hypergeometric testing for enrichment. For each pathogen-antibiotic pair, the fold-change threshold in DESeq2 used to test statistical significance was increased to select 60-100 antibiotic-responsive transcripts with maximal stringency, a number readily accommodated by the NanoString® assay format. […] As with responsive genes, the fold-change threshold was varied in order to select the top 10-20 control transcripts. […] See Supplemental Methods sections below for further details.
(§2) After antibiotic treatment as described in the above Materials and Methods section, cells were pelleted, resuspended in 0.5 mL Trizol reagent (ThermoFisher Scientific), transferred to 1.5 mL screw-cap tubes containing 0.25 mL of 0.1 mm diameter Zirconia/Silica beads (BioSpec Products), and lysed mechanically via bead-beating for 3-5 one-minute cycles on a Minibeadbeater-16 (BioSpec) or one 90-second cycle at 10 m/sec on a FastPrep (MP Bio). After addition of 0.1 mL chloroform, each sample tube was mixed thoroughly by inversion, incubated for 3 minutes at room temperature, and centrifuged at 12,000×g for 15 minutes at 4° C. […]

[4] = test system: E. coli clinical isolates; assay: as above; assay type: cell-based, Escherichia coli; details: CLSI breakpoint concentration, 0, 10, 30, 60 minutes
[5] = test system: A. baumannii clinical isolates; assay: as above; assay type: cell-based, Acinetobacter baumannii; details: CLSI breakpoint concentration, 0, 10, 30, 60 minutes
Source text: as §1, §2

[6] = test system: K. pneumoniae clinical isolates; assay: Standard broth microdilution MIC; assay type: cell-based, Klebsiella pneumoniae
Source text: as §3

C[C@H]1COc2c(N3CCN(C)CC3)c(F)cc3c(=O)c(C(=O)O)cn1c23 [levofloxacin]
MIC ([1]; S. aureus strain RB003): 0.125 µg/mL (≈ 0.346 µM) | MIC ([1]; S. aureus strain RB004): 32 µg/mL (≈ 88.6 µM) | MIC ([1]; S. aureus strain RB006): 0.06 µg/mL (≈ 0.166 µM) | MIC ([1]; S. aureus strain RB007): 16 µg/mL (≈ 44.3 µM) | MIC ([1]; S. aureus strain RB010): > 32 µg/mL | MIC ([1]; S. aureus strain RB045): 32 µg/mL (≈ 88.6 µM) | MIC ([1]; S. aureus strain RB047): > 32 µg/mL | MIC ([1]; S. aureus strain RB064): 8 µg/mL (≈ 22.1 µM) | MIC ([1]; S. aureus strain RB065): 0.06 µg/mL (≈ 0.166 µM) | MIC ([1]; S. aureus strain RB066): 0.06 µg/mL (≈ 0.166 µM) | MIC ([1]; S. aureus strain RB067): 0.13 µg/mL (≈ 0.36 µM) | MIC ([1]; S. aureus strain RB0069): 0.13 µg/mL (≈ 0.36 µM) | MIC ([1]; S. aureus strain RB072): 4 µg/mL (≈ 11.1 µM) | MIC ([1]; S. aureus strain RB074): 32 µg/mL (≈ 88.6 µM) | MIC ([1]; S. aureus strain RB090): 32 µg/mL (≈ 88.6 µM) | MIC ([1]; S. aureus strain RB095): 32 µg/mL (≈ 88.6 µM) | MIC ([1]; S. aureus strain RB096): 0.13 µg/mL (≈ 0.36 µM) | MIC ([1]; S. aureus strain RB098): 0.13 µg/mL (≈ 0.36 µM) | MIC ([1]; S. aureus strain RB211): 16 µg/mL (≈ 44.3 µM) | MIC ([1]; S. aureus strain RB219): 32 µg/mL (≈ 88.6 µM) | MIC ([1]; S. aureus strain RB221): 0.13 µg/mL (≈ 0.36 µM) | MIC ([1]; S. aureus strain RB223): 0.13 µg/mL (≈ 0.36 µM) | MIC ([1]; S. aureus strain RB245): 0.25 µg/mL (≈ 0.692 µM) | MIC ([1]; S. aureus strain RB247): 0.5 µg/mL (≈ 1.38 µM)

C[C@@H](O)[C@H]1C(=O)N2C(C(=O)O)=C(S[C@@H]3CN[C@H](C(=O)N(C)C)C3)[C@H](C)[C@H]12 [meropenem]
MIC ([2]; BAA2523, E. coli BAA2523 (blaOXA-48), inoculum of 10^7 cfu/mL): ≥ 32 µg/mL | MIC ([2]; BAA2523, E. coli BAA2523 (blaOXA-48), standard broth microdilution, inoculum of 10^5 cfu/mL): 0.5 to 1 µg/mL (≈ 1.3 to 2.61 µM) | MIC ([2]; E. coli AR0104 (blaKPC-4), inoculum of 10^7 cfu/mL): ≥ 32 µg/mL | MIC ([2]; E. coli AR0104 (blaKPC-4), standard broth microdilution, inoculum of 10^5 cfu/mL): 0.5 to 1 µg/mL (≈ 1.3 to 2.61 µM) | Gene ontology enrichment of antibiotic-responsive transcripts [3]: affected lipopolysaccharide biosynthesis | Gene ontology enrichment of antibiotic-responsive transcripts [4]: affected lipopolysaccharide biosynthesis; also recorded: induced a heat shock response | Gene ontology enrichment of antibiotic-responsive transcripts [5]: induced a heat shock response

C[C@@H](O)[C@H]1C(=O)N2C(C(=O)O)=C(S[C@@H]3CN[C@H](C(=O)N(C)C)C3)[C@H](C)[C@H]12 [mero]
mero MIC ([6]; KpMero strain AR0034): 2 mg/L | mero MIC ([6]; KpMero strain AR0040): >32 mg/L | mero MIC ([6]; KpMero strain AR0041): 16 mg/L | mero MIC ([6]; KpMero strain AR0042): <0.5 mg/L | mero MIC ([6]; KpMero strain AR0043): 2 mg/L | mero MIC ([6]; KpMero strain AR0044): 4 mg/L | mero MIC ([6]; KpMero strain AR0047): 4 mg/L | mero MIC ([6]; KpMero strain AR0075): 8 mg/L | mero MIC ([6]; KpMero strain AR0087): 1 mg/L | mero MIC ([6]; KpMero strain AR0135): 8 mg/L | mero MIC ([6]; KpMero strain AR0139): 32 mg/L | mero MIC ([6]; KpMero strain BAA2524 (RB554), value marked *): 0.5* mg/L | mero MIC ([6]; KpMero strain BIDMC_14): 16 mg/L | mero MIC ([6]; KpMero strain BIDMC_22): 0.25 mg/L | mero MIC ([6]; KpMero strain BIDMC_31): 0.125 mg/L | mero MIC ([6]; KpMero strain BIDMC_35): >32 mg/L | mero MIC ([6]; KpMero strain BIT-03): 8 mg/L | mero MIC ([6]; KpMero strain BIT-04): 32 mg/L | mero MIC ([6]; KpMero strain BIT-05): >32 mg/L | mero MIC ([6]; KpMero strain BIT-12): <0.5 mg/L | mero MIC ([6]; KpMero strain BIT-16): ≤0.5 mg/L | mero MIC ([6]; KpMero strain BWH_2): 16 mg/L | mero MIC ([6]; KpMero strain BWH_15): 8 mg/L | mero MIC ([6]; KpMero strain BWH_30): ≤0.5 mg/L | mero MIC ([6]; KpMero strain BWH_36): 16 mg/L | mero MIC ([6]; KpMero strain CDC_1500610): ≤0.5 mg/L | mero MIC ([6]; KpMero strain IDR1200023303): >32 mg/L | mero MIC ([6]; KpMero strain IDR1600031102-01-00): >32 mg/L | mero MIC ([6]; KpMero strain IDR1600037310): 1 mg/L | mero MIC ([6]; KpMero strain IDR1600057468-01-00): 4 mg/L | mero MIC ([6]; KpMero strain MGH_17): ≤0.5 mg/L | mero MIC ([6]; KpMero strain MGH_18): ≤0.5 mg/L | mero MIC ([6]; KpMero strain MGH_19): ≤0.5 mg/L | mero MIC ([6]; KpMero strain MGH_20): ≤0.5 mg/L | mero MIC ([6]; KpMero strain MGH_31): 8 mg/L | mero MIC ([6]; KpMero strain MGH_35): 2 mg/L | mero MIC ([6]; KpMero strain MGH_36): ≤0.5 mg/L | mero MIC ([6]; KpMero strain MGH_39): 2 mg/L | mero MIC ([6]; KpMero strain MGH_48): ≤0.5 mg/L | mero MIC ([6]; KpMero strain MGH_71): 32 mg/L | mero MIC ([6]; KpMero strain RB039): ≤0.5 mg/L | mero MIC ([6]; KpMero strain RB041): ≤0.5 mg/L | mero MIC ([6]; KpMero strain RB042): ≤0.5 mg/L | mero MIC ([6]; KpMero strain UCI_7): 0.25 mg/L | mero MIC ([6]; KpMero strain UCI_19): >32 mg/L | mero MIC ([6]; KpMero strain UCI_37): 32 mg/L | mero MIC ([6]; KpMero strain UCI_38): ≤0.5 mg/L | mero MIC ([6]; KpMero strain UCI_44): 0.25 mg/L | mero MIC ([6]; KpMero strain UCI_61): 32 mg/L | mero MIC ([6]; KpMero strain UCI_64): 0.25 mg/L | mero MIC ([2]; EcMero strain AR0048): 32 mg/L | mero MIC ([2]; EcMero strain AR0055): 8 mg/L | mero MIC ([2]; EcMero strain AR0058): 0.25 mg/L | mero MIC ([2]; EcMero strain AR0061): 8 mg/L | mero MIC ([2]; EcMero strain AR0069): 16 mg/L | mero MIC ([2]; EcMero strain AR0077): 0.5 mg/L | mero MIC ([2]; EcMero strain AR0089): 0.5 mg/L | mero MIC ([2]; EcMero strain AR0104, value marked *): 1* mg/L | mero MIC ([2]; EcMero strain BAA2469): 16 mg/L | mero MIC ([2]; EcMero strain BAA2523 (RB553), value marked *): 0.5* mg/L | mero MIC ([2]; EcMero strain BIDMC_77): 0.5 mg/L | mero MIC ([2]; EcMero strain IDR1200024571): >32 mg/L | mero MIC ([2]; EcMero strain IDR1200039757): >32 mg/L | mero MIC ([2]; EcMero strain IDR1300027657): 1 mg/L | mero MIC ([2]; EcMero strain IDR1600029769): 8 mg/L | mero MIC ([2]; EcMero strain IDR1600035372): 0.5 mg/L
